Measured values reported in patent US20120245137A1 (Zalicus Pharmaceuticals Ltd., priority 2009, published 2012).
pIC50: −log10 of the molar value. Read-outs that look alike come from different tables or passages of the source.

Assays:
Assay type in all cases: cell-based
[1] = target: T-type calcium channel (Homo sapiens, UniProt O95180); test: T-type channel blocking, FLIPR data (Table 6)
Text: Another method, high-throughput spectrophotometric assay, utilizes loading of the cell lines with a fluorescent dye sensitive to intracellular calcium concentration and subsequent examination of the effects of compounds on the ability of depolarization by potassium chloride or other means to alter intracellular calcium levels.

[2] = target: Human Cav 2.2 channels (Homo sapiens, UniProt Q00975); test: Fluorescent assay for CaV2.2 channels using potassium depolarization (VIPR/FLIPR); conditions: FLIPR data
Sequence of Human Cav 2.2 channels (Q00975 whole entry): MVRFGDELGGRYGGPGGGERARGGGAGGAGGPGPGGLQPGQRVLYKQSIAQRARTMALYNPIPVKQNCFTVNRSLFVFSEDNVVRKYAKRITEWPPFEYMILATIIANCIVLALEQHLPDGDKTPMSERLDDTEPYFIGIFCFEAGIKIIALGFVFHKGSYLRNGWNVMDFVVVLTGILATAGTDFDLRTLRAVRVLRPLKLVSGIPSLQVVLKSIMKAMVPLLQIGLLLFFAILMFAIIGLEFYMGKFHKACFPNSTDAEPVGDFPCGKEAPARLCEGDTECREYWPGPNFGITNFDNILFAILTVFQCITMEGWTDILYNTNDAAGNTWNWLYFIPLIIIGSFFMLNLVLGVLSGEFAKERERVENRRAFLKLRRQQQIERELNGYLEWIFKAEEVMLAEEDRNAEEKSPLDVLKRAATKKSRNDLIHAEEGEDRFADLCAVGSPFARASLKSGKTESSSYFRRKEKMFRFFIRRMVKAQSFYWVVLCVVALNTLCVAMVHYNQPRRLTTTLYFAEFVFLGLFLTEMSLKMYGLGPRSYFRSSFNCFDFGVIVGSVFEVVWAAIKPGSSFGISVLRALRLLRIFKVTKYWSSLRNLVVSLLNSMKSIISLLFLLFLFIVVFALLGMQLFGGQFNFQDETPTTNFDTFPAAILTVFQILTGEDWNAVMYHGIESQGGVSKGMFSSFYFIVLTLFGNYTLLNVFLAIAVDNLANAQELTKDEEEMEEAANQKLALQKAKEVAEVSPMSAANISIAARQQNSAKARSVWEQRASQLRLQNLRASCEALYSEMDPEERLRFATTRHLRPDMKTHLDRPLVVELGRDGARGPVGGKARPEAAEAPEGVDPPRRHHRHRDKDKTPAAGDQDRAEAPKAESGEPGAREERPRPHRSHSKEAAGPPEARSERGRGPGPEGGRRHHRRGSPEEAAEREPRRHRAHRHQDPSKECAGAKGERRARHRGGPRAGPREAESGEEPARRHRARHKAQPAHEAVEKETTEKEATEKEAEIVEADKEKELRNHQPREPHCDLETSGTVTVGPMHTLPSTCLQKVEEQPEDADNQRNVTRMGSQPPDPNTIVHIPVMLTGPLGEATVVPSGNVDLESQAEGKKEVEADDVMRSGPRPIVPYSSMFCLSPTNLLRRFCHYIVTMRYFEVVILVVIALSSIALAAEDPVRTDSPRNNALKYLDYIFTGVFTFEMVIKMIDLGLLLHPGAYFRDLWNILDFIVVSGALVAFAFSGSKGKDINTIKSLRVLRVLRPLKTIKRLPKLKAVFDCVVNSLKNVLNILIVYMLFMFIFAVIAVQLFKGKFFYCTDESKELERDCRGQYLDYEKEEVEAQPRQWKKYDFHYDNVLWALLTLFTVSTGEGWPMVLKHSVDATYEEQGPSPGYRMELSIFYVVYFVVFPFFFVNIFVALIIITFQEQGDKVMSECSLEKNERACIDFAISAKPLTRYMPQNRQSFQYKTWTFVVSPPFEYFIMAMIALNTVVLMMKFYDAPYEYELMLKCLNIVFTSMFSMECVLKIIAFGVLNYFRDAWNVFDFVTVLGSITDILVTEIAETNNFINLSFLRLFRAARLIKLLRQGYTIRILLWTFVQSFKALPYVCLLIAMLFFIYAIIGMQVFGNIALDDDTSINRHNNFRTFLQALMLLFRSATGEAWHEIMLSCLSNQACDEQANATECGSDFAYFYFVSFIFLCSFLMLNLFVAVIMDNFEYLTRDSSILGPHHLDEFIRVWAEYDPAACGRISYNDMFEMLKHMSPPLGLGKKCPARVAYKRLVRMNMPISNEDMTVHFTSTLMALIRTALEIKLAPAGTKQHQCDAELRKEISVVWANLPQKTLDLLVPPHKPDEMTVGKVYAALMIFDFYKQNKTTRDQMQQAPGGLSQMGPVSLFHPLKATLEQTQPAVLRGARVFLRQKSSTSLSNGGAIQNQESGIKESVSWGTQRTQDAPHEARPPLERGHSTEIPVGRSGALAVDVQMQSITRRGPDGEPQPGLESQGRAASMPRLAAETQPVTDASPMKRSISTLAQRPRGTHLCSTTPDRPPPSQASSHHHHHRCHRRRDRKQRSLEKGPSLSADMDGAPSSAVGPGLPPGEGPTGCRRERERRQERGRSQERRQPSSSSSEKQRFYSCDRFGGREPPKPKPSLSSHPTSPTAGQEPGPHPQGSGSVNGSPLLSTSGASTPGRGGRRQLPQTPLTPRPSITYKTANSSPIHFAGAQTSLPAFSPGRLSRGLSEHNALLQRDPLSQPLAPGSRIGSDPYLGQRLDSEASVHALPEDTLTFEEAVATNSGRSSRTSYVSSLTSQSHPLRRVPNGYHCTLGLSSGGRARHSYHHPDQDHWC
Sequence of Human Cav 2.2 channels (P54289 25-1103 partner): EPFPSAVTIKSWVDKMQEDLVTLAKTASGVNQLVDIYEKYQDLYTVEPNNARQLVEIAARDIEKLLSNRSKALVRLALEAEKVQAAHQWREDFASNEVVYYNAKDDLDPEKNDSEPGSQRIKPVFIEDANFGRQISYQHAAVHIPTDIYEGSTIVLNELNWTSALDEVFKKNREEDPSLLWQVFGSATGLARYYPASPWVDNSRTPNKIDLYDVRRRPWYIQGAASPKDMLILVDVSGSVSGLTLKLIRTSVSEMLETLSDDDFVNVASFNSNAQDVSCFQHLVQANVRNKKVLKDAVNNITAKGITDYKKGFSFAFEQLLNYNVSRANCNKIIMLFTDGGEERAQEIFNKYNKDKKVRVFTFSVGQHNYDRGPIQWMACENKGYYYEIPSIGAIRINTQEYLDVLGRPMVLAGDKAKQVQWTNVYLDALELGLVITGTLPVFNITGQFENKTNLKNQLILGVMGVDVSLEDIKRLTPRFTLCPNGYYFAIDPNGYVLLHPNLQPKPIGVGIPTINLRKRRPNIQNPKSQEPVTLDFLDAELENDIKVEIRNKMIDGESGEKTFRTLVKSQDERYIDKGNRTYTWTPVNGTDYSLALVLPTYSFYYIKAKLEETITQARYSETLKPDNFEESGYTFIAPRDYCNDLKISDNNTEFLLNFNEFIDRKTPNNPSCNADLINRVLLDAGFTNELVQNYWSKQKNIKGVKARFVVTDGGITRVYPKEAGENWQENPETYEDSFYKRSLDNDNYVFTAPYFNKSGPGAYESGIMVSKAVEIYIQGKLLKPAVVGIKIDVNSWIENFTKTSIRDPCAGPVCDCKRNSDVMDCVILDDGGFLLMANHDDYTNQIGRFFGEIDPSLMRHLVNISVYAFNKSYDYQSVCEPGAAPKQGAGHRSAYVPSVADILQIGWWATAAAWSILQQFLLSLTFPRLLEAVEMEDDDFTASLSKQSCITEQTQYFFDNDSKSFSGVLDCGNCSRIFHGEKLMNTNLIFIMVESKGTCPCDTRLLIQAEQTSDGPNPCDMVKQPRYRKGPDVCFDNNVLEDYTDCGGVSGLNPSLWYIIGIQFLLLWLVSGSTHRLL
Sequence of Human Cav 2.2 channels (P54284 whole entry partner): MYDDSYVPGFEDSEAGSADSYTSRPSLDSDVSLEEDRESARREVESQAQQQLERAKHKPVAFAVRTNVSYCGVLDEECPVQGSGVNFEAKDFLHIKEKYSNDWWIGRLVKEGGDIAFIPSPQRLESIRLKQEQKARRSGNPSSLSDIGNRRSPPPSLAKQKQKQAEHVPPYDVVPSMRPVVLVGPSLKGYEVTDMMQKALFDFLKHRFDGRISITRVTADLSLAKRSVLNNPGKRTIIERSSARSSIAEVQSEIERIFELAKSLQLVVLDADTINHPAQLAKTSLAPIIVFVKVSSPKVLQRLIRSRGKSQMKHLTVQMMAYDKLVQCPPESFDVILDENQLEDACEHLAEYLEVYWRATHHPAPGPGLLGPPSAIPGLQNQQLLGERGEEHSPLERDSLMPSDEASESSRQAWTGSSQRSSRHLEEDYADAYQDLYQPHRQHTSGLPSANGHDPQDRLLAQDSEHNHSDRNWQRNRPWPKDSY
Text: Human Cav 2.2 channels were stably expressed in HEK293 cells along with alpha2-delta and beta subunits of voltage-gated calcium channels. An inwardly rectifying potassium channel (Kir2.3) was also expressed in these cells to allow more precise control of the cell membrane potential by extracellular potassium concentration. At low bath potassium concentration, the membrane potential is relatively negative, and is depolarized as the bath potassium concentration is raised. In this way, the bath potassium concentration can be used to regulate the voltage-dependent conformations of the channels. […] After the incubation period, Cav2.2 channel opening is triggered by addition of higher concentration of potassium (70 mM final concentration) to further depolarize the cell. The degree of state-dependent block can be estimated from the inhibitory potency of compounds after incubation in different potassium concentrations.
Calcium influx through Cav 2.2 channels is determined using a calcium sensitive fluorescent dye in combination with a fluorescent plate reader. Fluorescent changes were measured with either a VIPR (Aurora Instruments) or FLIPR (Molecular Devices) plate reader.
1. Seed cells in Poly-D-Lysine Coated 96 or 384-well plate and keep in a 3rC-IO % C02 incubator overnight.
2. Remove media, wash cells with 0.2 mL (96-well plate) or 0.05 mL (384-well plate) Dulbecco's Phosphate Buffered Saline (D-PBS) with calcium & magnesium (Invitrogen; 14040).
3. Add 0.1 mL (96-well plate) or 0.05 mL (384-well plate) of 4˜M fluor-4 (Molecular Probes; F-14202) and 0.02% Pluronic acid (Molecular Probes; P-3(00) prepared in D-PBS with calcium & magnesium (Invitrogen; 14040) supplemented with 10 mM Glucose & 10 mM HepeslNaOH; pH 7.4.
4. Incubate in the dark at 25° C. for 60-70 min.
5. Remove dye, wash cells with 0.1 mL (96-well plate) or 0.06 mL (384-well plate) of 4, 12, 25, or 30 mM Potassium Pre-polarization Buffer (PPB).
6. Add 0.1 mL (96-well plate) or 0.03 mL (384-well plate) of 4, 12, 25, 30 mM PPB with or without test compound.
7. Incubate in the dark at 25° C. for 30 min
8. Read cell plate on VIPR instrument, Excitation=480 nm, Emission=535 nm.
9. With VIPR continuously reading, add 0.1 mL (96-well plate) or 0.03 mL (384-well plate) of Depolarization Buffer (DB), which is 2× the final assay concentration, to the cell plate.

[3] = target: CAv1.2 (Homo sapiens, UniProt Q13936); test: FLIPR data, CAv1.2 channel blocking (Table 6)
[4] = CAv3.2, inactivated state, read-out: CAv3.2 IC50 Inact.
[5] = closed state, read-out: CAv2.2 IC50 Closed
[6] = inactivated state, read-out: CAv2.2 IC50 Inact.
[7] = CAv3.2, closed state, read-out: CAv3.2 IC50 Closed
[8] = CAv3.2, ratio closed/inactivated IC50
[9] = closed state, read-out: CAv1.2 IC50 Closed
[10] = inactivated state, read-out: CAv1.2 IC50 Inact.

SMILES	pIC50 [1, 4]	pIC50 [2, 5]	pIC50 [2, 6]	CAv2.2 IC50 Ratio closed/inact. ([2]; ratio closed/inactivated IC50)	pIC50 [1, 7]	CAv3.2 IC50 Ratio closed/inact. [1, 8]	pIC50 [3, 9]	pIC50 [3, 10]	CAv2.2 IC50 Ratio closed/inact. ([2]; ratio closed/inact.)	CAv3.2 IC50 Ratio closed/inact. ([1]; CAv3.2, ratio closed/inact.)
N[C@@H]1CCCC[C@@H]1C(=O)NC[C@H]1C[C@H](S(=O)(=O)c2cccc(OC(F)(F)F)c2)C1 (single isomer, unassigned) [Compound 700]	5.00	5.45	5.90	2.8	–	–	–	–	–	–
N[C@@H]1CCCC[C@@H]1C(=O)NC[C@H]1C[C@H](S(=O)(=O)c2cc(F)cc(C(F)(F)F)c2)C1 (single isomer, unassigned) [Compound 707]	5.00	5.00	–	–	–	–	–	–	–	–
O=C(NC[C@H]1C[C@H](S(=O)(=O)c2cccc(C(F)(F)F)c2)C1)c1ccc(Cl)cn1 [Compound 573]	5.23	5.49	6.37	7.5	5.09	1.4	≤ 5.00	≤ 5.00	–	–
O=C(NC[C@H]1C[C@H](S(=O)(=O)c2cccc(C(F)(F)F)c2)C1)c1ncc(C(F)(F)F)cn1 [Compound 574]	–	5.00	5.89	7.8	–	–	–	–	–	–
CC(C)([C@H]1C[C@@H](NC(=O)c2ccc(S(C)(=O)=O)cc2Cl)C1)S(=O)(=O)c1cccc(C(F)(F)F)c1 [Compound 577]	–	5.00	6.19	15.6	–	–	≤ 5.00	≤ 5.00	–	–
CC(C)([C@H]1C[C@@H](NC(=O)c2ncc(C(F)(F)F)cn2)C1)S(=O)(=O)c1cccc(C(F)(F)F)c1 [Compound 583]	5.00	5.00	5.95	8.9	–	–	≤ 5.00	–	–	–
CC(C)([C@H]1C[C@@H](NC(=O)c2ccc(C(F)(F)F)cc2S(C)(=O)=O)C1)S(=O)(=O)c1cc(F)cc(C(F)(F)F)c1 [Compound 585]	5.00	5.00	5.97	9.3	≤ 5.00	1	–	≤ 5.00	–	–
CC(C)([C@H]1C[C@@H](NC(=O)c2ccnc(C(F)(F)F)n2)C1)S(=O)(=O)c1cc(F)cc(C(F)(F)F)c1 [Compound 588]	5.49	5.23	6.02	6.2	≤ 5.00	3.1	≤ 5.00	≤ 5.00	–	–
CC(C)([C@H]1C[C@H](NC(=O)c2ccc(C(F)(F)F)cc2S(C)(=O)=O)C1)S(=O)(=O)c1cc(F)cc(C(F)(F)F)c1 [Compound 592]	5.00	5.00	6.34	21.7	≤ 5.00	1	≤ 5.00	≤ 5.00	–	–
Cc1nc(S(=O)(=O)N[C@H]2C[C@@H](C(C)(C)S(=O)(=O)c3cc(F)cc(C(F)(F)F)c3)C2)cn1C [Compound 604]	–	5.00	5.36	2.3	≤ 5.00	–	≤ 5.00	≤ 5.00	–	–
Cc1nc(S(=O)(=O)N[C@H]2C[C@@H](C(C)(C)S(=O)(=O)c3cccc(C(F)(F)F)c3)C2)cn1C [Compound 631]	–	–	5.16	1.4	–	–	–	–	–	–
CC(C)([C@H]1C[C@@H](NC(=O)CC2(N)CCCCC2)C1)S(=O)(=O)c1cccc(C(F)(F)F)c1 [Compound 652]	5.00	5.05	5.92	7.5	–	–	–	–	–	–
CNC1(CC(=O)N[C@H]2C[C@@H](C(C)(C)S(=O)(=O)c3cccc(C(F)(F)F)c3)C2)CCCCC1 [Compound 657]	–	5.03	5.67	4.3	–	–	≤ 5.00	–	–	–
Cc1nc(S(=O)(=O)N[C@H]2C[C@H](C(C)(C)S(=O)(=O)c3cccc(C(F)(F)F)c3)C2)cn1C [Compound 670]	–	5.00	5.06	1.2	–	–	–	–	–	–
CC(C)([C@H]1C[C@H](NC(=O)c2ncc(C(F)(F)F)cn2)C1)S(=O)(=O)c1cccc(C(F)(F)F)c1 [Compound 678]	–	5.05	6.10	11.3	–	–	–	–	–	–
CC(C)([C@H]1C[C@H](NC(=O)c2ccc(Cl)cc2S(C)(=O)=O)C1)S(=O)(=O)c1cccc(C(F)(F)F)c1 [Compound 679]	5.00	5.00	6.32	20.8	≤ 5.00	1	–	–	–	–
CC(C)([C@H]1C[C@H](NC(=O)c2ccc(S(C)(=O)=O)cc2Cl)C1)S(=O)(=O)c1cccc(C(F)(F)F)c1 [Compound 680]	5.00	5.00	5.88	7.6	≤ 5.00	1	–	–	–	–
N[C@H]1CCCC[C@@H]1C(=O)NC[C@H]1C[C@H](S(=O)(=O)c2cccc(OC(F)(F)F)c2)C1 [Compound 713]	5.00	–	–	–	–	–	–	–	–	–
CC(C)(C[C@H]1C[C@H](NC(=O)[C@H]2CCCC[C@H]2N)C1)S(=O)(=O)c1cccc(C(F)(F)F)c1 [Compound 742]	5.00	5.47	5.98	–	–	–	–	–	3.2	–
O=C(c1ccc(C(F)(F)F)cn1)N1CC(CS(=O)(=O)c2cc(F)cc(C(F)(F)F)c2)C1 [Compound 746]	5.00	–	≤ 5.00	–	≤ 5.00	–	–	–	–	1
O=C(NC[C@H]1C[C@H](S(=O)(=O)c2cccc(Cl)c2)C1)c1cnc(C(F)(F)F)nc1 [Compound 773]	5.00	–	5.01	–	≤ 5.00	–	–	–	1	1
NC1(CC(=O)NC[C@H]2C[C@H](S(=O)(=O)c3cccc(Cl)c3)C2)CCCCC1 [Compound 776]	5.00	5.00	5.03	–	–	–	–	–	1.1	–
N[C@@H]1CCCC[C@H]1C(=O)NC[C@H]1C[C@H](S(=O)(=O)c2cccc(Cl)c2)C1 [Compound 777]	5.00	5.00	≤ 5.00	–	–	–	–	–	1	–
N[C@H]1CCCC[C@H]1C(=O)NC[C@H]1C[C@H](S(=O)(=O)c2cccc(Cl)c2)C1 [Compound 778]	5.00	–	≤ 5.00	–	–	–	–	–	–	–
